Data from patent US4443436A, “C-20-Modified macrolide derivatives of the macrolide antibiotics tylosin, desmycosin, macrocin, and lactenocin” (Eli Lilly and Company, priority 1982, dated 1984).
Converted amounts (≈) assume the structure as drawn. Like-named read-outs stand apart in the source and are kept apart here.

Assays:
[1] = tested on: Staphylococcus aureus X1.1; experiment: MIC, standard agar-dilution assay, Staphylococcus aureus X1.1; type: cell-based
[2] = tested on: Staphylococcus aureus V41; experiment: MIC, standard agar-dilution assay, Staphylococcus aureus V41; type: cell-based
[3] = tested on: Staphylococcus aureus X400; experiment: MIC, standard agar-dilution assay, Staphylococcus aureus X400; type: cell-based
[4] = tested on: Staphylococcus aureus S13E; experiment: MIC, standard agar-dilution assay, Staphylococcus aureus S13E; type: cell-based
[5] = tested on: Staphylococcus epidermidis EPI1; experiment: MIC, standard agar-dilution assay, Staphylococcus epidermidis EPI1; type: cell-based
[6] = tested on: Staphylococcus epidermidis EPI2; experiment: MIC, standard agar-dilution assay, Staphylococcus epidermidis EPI2; type: cell-based
[7] = tested on: Streptococcus pyogenes C203; experiment: MIC, standard agar-dilution assay, Streptococcus pyogenes C203; type: cell-based
[8] = tested on: Streptococcus pneumoniae Park I; experiment: microbe, parasite or virus in culture; type: cell-based; details: Streptococcus pneumoniae Park I, agar dilution
[9] = tested on: Streptococcus Group D X66; experiment: MIC, standard agar-dilution assay, Streptococcus Group D X66; type: cell-based; details: Streptococcus Group D X66, agar dilution
Streptococcus Group 9960 = experiment: MIC, standard agar-dilution assay, Streptococcus Group 9960; type: cell-based; details: Streptococcus Group 9960, agar dilution
[10] = tested on: Haemophilus influenzae Holt; experiment: MIC, standard agar-dilution assay, Haemophilus influenzae Holt; type: cell-based; details: Haemophilus influenzae Holt, ampicillin-sensitive strain
[11] = tested on: Haemophilus influenzae R252; experiment: MIC, standard agar-dilution assay, Haemophilus influenzae R252; type: cell-based; details: Haemophilus influenzae R252, ampicillin-resistant strain
Staphylococcus aureus = experiment: MIC, broth-dilution microtiter test, Staphylococcus aureus; type: cell-based
Text: (§1) The MIC's in Table X were obtained using conventional broth-dilution microtiter tests.

Streptococcus bovis 80 = experiment: MIC, broth-dilution microtiter test, Streptococcus bovis 80; type: cell-based
Text: as §1

[12] = tested on: Pasteurella multocida 17E; experiment: MIC, broth-dilution microtiter test, Pasteurella multocida 17E; type: cell-based
Text: as §1

[13] = tested on: Pasteurella multocida 60A; experiment: MIC, broth-dilution microtiter test, Pasteurella multocida 60A; type: cell-based; details: Pasteurella multocida 60A, avian isolate, broth-dilution microtiter
Text: as §1

[14] = tested on: Pasteurella hemolytica 22C; experiment: MIC, broth-dilution microtiter test, Pasteurella hemolytica 22C; type: cell-based; details: Pasteurella hemolytica 22C, broth-dilution microtiter
Text: as §1

Mycoplasma gallisepticum = experiment: MIC, broth-dilution microtiter test, Mycoplasma gallisepticum; type: cell-based
Text: as §1

Mycoplasma synoviae = experiment: MIC, broth-dilution microtiter test, Mycoplasma synoviae; type: cell-based
Text: as §1

Mycoplasma hyorhinis = experiment: MIC, broth-dilution microtiter test, Mycoplasma hyorhinis; type: cell-based
Text: as §1

[15] = tested on: Streptococcus pyogenes C203; experiment: In vivo protection of mice experimentally infected with S. pyogenes C203; details: mice, doses given 1 and 4 hours post-infection
Method: The C-20 modified derivatives of this invention have shown in vivo antimicrobial activity against experimentally-induced infections in laboratory animals. When two doses of test compound were administered to mice experimentally infected with S. pyogenes C203, the activity observed was measured as an ED50 value [effective dose in mg/kg to protect 50% of the test animals: see Warren Wick, et al., J. Bacteriol. 81, 233-235 (1961)].

Mycoplasma hyopneumoniae = experiment: MIC, broth-dilution microtiter test, Mycoplasma hyopneumoniae; type: cell-based; details: Mycoplasma hyopneumoniae; broth-dilution microtiter
Text: as §1

[16] = Staphylococcus aureus X1.1, agar dilution
[17] = Staphylococcus aureus V41, penicillin-resistant strain, agar dilution
[18] = Staphylococcus aureus X400, methicillin-resistant strain, agar dilution
[19] = Staphylococcus aureus S13E, agar dilution
[20] = Staphylococcus epidermidis EPI1, agar dilution
[21] = Streptococcus pyogenes C203, agar dilution
[22] = Streptococcus bovis 80, broth-dilution microtiter
[23] = Pasteurella multocida 17E, bovine isolate, broth-dilution microtiter
[24] = Mycoplasma gallisepticum, broth-dilution microtiter
[25] = Mycoplasma hyorhinis, broth-dilution microtiter

In the case of `CCC1OC(=O)CC(O)C(C)C(OC2OC(C)C(OC3CC(C)(O)C(O)C(C)O3)C(N(C)C)C2O)C(C)CC(C)C(=O)C=CC(C)=CC1COC1OC(C)C(O)C(O)C1OC` (stereo not shown) [Compound 54, 20-Deformylmacrocin], the MIC ([1]; Staphylococcus aureus, X1.1) is reported as 2 µg/mL (≈ 2.29 µM), the MIC ([2]; Staphylococcus aureus, V41) is reported as 1 µg/mL (≈ 1.14 µM) and the MIC ([3]; Staphylococcus aureus, X400) is reported as 2 µg/mL (≈ 2.29 µM). It also gave an MIC ([4]; Staphylococcus aureus, S13E) of 2 µg/mL (≈ 2.29 µM), an MIC ([5]; Staphylococcus epidermidis, EPI1) of 2 µg/mL (≈ 2.29 µM) and an MIC ([6]; Staphylococcus epidermidis, EPI2) of 2 µg/mL (≈ 2.29 µM). For the same molecule, the MIC ([7]; Streptococcus pyogenes, C203) was 2 µg/mL (≈ 2.29 µM), the MIC ([8]; read-out: MIC) was 64 µg/mL (≈ 73.2 µM) and the MIC ([9]; read-out: MIC) was 128 µg/mL (≈ 146 µM). For the same molecule, the MIC (Streptococcus Group 9960; GROUP9960, read-out: MIC) was 28 µg/mL (≈ 32 µM), the MIC ([10]; read-out: MIC) was over 128 µg/mL and the MIC ([11]; read-out: MIC) was over 128 µg/mL. The MIC (Staphylococcus aureus) was 3.12 µg/mL (≈ 3.57 µM), the MIC (Streptococcus bovis 80; Streptococcus equinus, 80) was 6.25 µg/mL (≈ 7.15 µM) and the MIC ([12]; Pasteurella multocida, 17E) was over 50 µg/mL. The MIC ([13]; read-out: MIC) was over 50 µg/mL, the MIC ([14]; read-out: MIC) was over 50 µg/mL and the MIC (Mycoplasma gallisepticum; Mycoplasmoides gallisepticum) was 0.78 µg/mL (≈ 0.892 µM). It also gave an MIC (Mycoplasma synoviae; Mycoplasmopsis synoviae) of 1.56 µg/mL (≈ 1.78 µM), an MIC (Mycoplasma hyorhinis; Mycoplasma) of 25 µg/mL (≈ 28.6 µM) and an ED50 ([15]; Streptococcus pyogenes, C203, oral, read-out: ED50, Oral) of 31 mg/kg.
For `CCC(=O)OC1C(OC2C(CCN3C(=O)c4ccccc4C3=O)CC(C)C(=O)C=CC(C)=CC(COC3OC(C)C(O)C(OC)C3OC)C(CC)OC(=O)CC(O)C2C)OC(C)C(O)C1N(C)C` (stereo not shown) [Compound 65, 20-DH-DO-20-N-Phthalimido-2'-O-propionyldesmycosin], the MIC [1, 16] was 0.5 µg/mL (≈ 0.521 µM), the MIC [2, 17] was 0.5 µg/mL (≈ 0.521 µM) and the MIC [3, 18] was 0.5 µg/mL (≈ 0.521 µM). It also gave an MIC [4, 19] of 0.5 µg/mL (≈ 0.521 µM), an MIC [5, 20] of 0.25 µg/mL (≈ 0.261 µM) and an MIC [7, 21] of 0.5 µg/mL (≈ 0.521 µM). The MIC [8] was 1 µg/mL (≈ 1.04 µM), the MIC [9] was 8 µg/mL (≈ 8.34 µM) and the MIC (Streptococcus Group 9960) was 8 µg/mL (≈ 8.34 µM). For the same molecule, the MIC ([10]; agar dilution) was 64 µg/mL (≈ 66.7 µM), the MIC ([11]; agar dilution) was 32 µg/mL (≈ 33.4 µM) and the MIC (Staphylococcus aureus; broth-dilution microtiter) was 1.56 µg/mL (≈ 1.63 µM). It also gave an MIC (Streptococcus bovis 80; [22]) of 6.25 µg/mL (≈ 6.52 µM), an MIC [12, 23] of 25 µg/mL (≈ 26.1 µM) and an MIC [13] of 12.5 µg/mL (≈ 13 µM). For the same molecule, the MIC [14] was 25 µg/mL (≈ 26.1 µM), the MIC (Mycoplasma gallisepticum; [24]) was under 0.05 µg/mL and the MIC (Mycoplasma hyorhinis; [25]) was “-- (Not active at 50 mcg/ml, the highest level tested)”. The MIC (Mycoplasma hyopneumoniae) was 12.5 µg/mL (≈ 13 µM), the “ED50, Oral” value ([15]; oral) was 20 mg/kg × 2 and the “ED50, Subcutaneous” value [15] was 1.7 mg/kg × 2.
In the case of `CCC1OC(=O)CC(O)C(C)C(OC2OC(C)CC(N(C)C)C2O)C(CCOc2ccccc2)CC(C)C(=O)C=CC(C)=CC1COC1OC(C)C(O)C(OC)C1OC` (stereo not shown) [Compound 70, 20-DH-20-O-Phenyl-4'-deoxydesmycosin], the MIC [1, 16] is reported as 0.25 µg/mL (≈ 0.3 µM), the MIC [2, 17] is reported as 0.25 µg/mL (≈ 0.3 µM) and the MIC [3, 18] is reported as 0.25 µg/mL (≈ 0.3 µM). For the same molecule, the MIC [4, 19] was 0.25 µg/mL (≈ 0.3 µM), the MIC [5, 20] was 0.25 µg/mL (≈ 0.3 µM) and the MIC ([6]; Staphylococcus epidermidis EPI2, agar dilution) was 0.12 µg/mL (≈ 0.144 µM). For the same molecule, the MIC [7, 21] was 0.5 µg/mL (≈ 0.599 µM), the MIC [8] was 0.5 µg/mL (≈ 0.599 µM) and the MIC [9] was 2 µg/mL (≈ 2.4 µM). The MIC (Streptococcus Group 9960) was 4 µg/mL (≈ 4.8 µM), the MIC ([10]; agar dilution) was 4 µg/mL (≈ 4.8 µM) and the MIC ([11]; agar dilution) was 4 µg/mL (≈ 4.8 µM). For the same molecule, the MIC (Staphylococcus aureus; broth-dilution microtiter) was 0.78 µg/mL (≈ 0.935 µM), the MIC (Streptococcus bovis 80; [22]) was 6.25 µg/mL (≈ 7.49 µM) and the MIC [12, 23] was 12.5 µg/mL (≈ 15 µM). It also gave an MIC [13] of 12.5 µg/mL (≈ 15 µM), an MIC [14] of 50 µg/mL (≈ 59.9 µM) and an MIC (Mycoplasma gallisepticum; [24]) of 0.39 µg/mL (≈ 0.468 µM). For the same molecule, the MIC (Mycoplasma synoviae; Mycoplasma synoviae, broth-dilution microtiter) was 0.78 µg/mL (≈ 0.935 µM), the MIC (Mycoplasma hyorhinis; [25]) was 12.5 µg/mL (≈ 15 µM) and the “ED50, Oral” value ([15]; oral) was 7 mg/kg × 2. For the same molecule, the “ED50, Subcutaneous” value [15] was 3.1 mg/kg × 2.
